Here are results for 14 compounds from paper PMC12195648 (Pharmaceuticals, 2025).

Where two headings read alike, the source gives them in different places.

For one assay, the target named is T1, recombinant Abl1 kinase (Homo sapiens, UniProt P00519).
T1 construct: made in house
Kind of assay: Abl1 kinase inhibition assay (peptide substrate, [γ-33P]ATP). It is filed as biochemical. How it is done:
The inhibitory activity of the synthesized compounds was assessed on an in-house produced recombinant Abl1 kinase. The assay utilized 500 µM peptide […] as a substrate in the presence of 1 µM ATP + [γ-33P]ATP (0.05 µCi per reaction) and the test compound in a final volume of 10 µL of reaction buffer (60 mM HEPES-NaOH, pH 7.5, 3 mM MgCl2, 3 mM MnCl2, 3 μM Na-orthovanadate, 1.2 mM DTT, 2.5 μg/50 μL PEG20.000). The reaction was terminated by adding 5 µL of 3% aq. H3PO4. Aliquots were spotted onto P-81 phosphocellulose (Whatman, Maidstone, UK), washed three times with 0.5% aq. H3PO4, and air-dried. Peptide phosphorylation was quantified through digital autoradiography (FLA-7000; Fujifilm, Tokyo, Japan).

The subject of another assay is K562 cells. Kind of assay: Cytotoxicity, resazurin assay, K562. It is filed as cell-based, human. The conditions noted are these: for SI (K562): GI50 HEK-293T / GI50 K562; for GI50: Homo sapiens, K562, 72 h, resazurin, GI50 ± SD. The protocol: (§1) The development of the KCL22 subclone B8 (T315I, 100%) has been previously detailed. All cell lines were maintained in a humidified incubator at 37 °C and 5% CO2, following the manufacturer’s instructions, in the appropriate medium supplemented with 10% foetal bovine serum, penicillin (100 IU/mL), streptomycin (100 µg/mL), and glutamine (4 mM).
(§2) Cytotoxicity was assessed utilizing resazurin, an indicator dyes that measures oxidation-reduction reactions in the mitochondria of living cells. Cells were seeded into 96-well plates and treated with the compounds for 72 h (six different doses of each compound, in triplicate).

The next assay concerns KCL22 cells. Kind of assay: Cytotoxicity, resazurin assay, KCL22. It counts as cell-based, human. The conditions noted are these: for SI (KCL22): GI50 HEK-293T / GI50 KCL22; for GI50: Homo sapiens, KCL-22, 72 h, resazurin, GI50 ± SD. How it is done: as §1, §2
(In general: Alamar Blue is a resazurin reagent that responds to reducing activity.)

Another assay has as its system KCL22-B8 cells. The assay can be described thus: Cytotoxicity, resazurin assay, KCL22-B8 (Bcr-Abl T315I). It counts as cell-based, human. The conditions noted are these: for SI (KCL22-B8): GI50 HEK-293T / GI50 KCL22-B8; for GI50: 72 h, resazurin, GI50 ± SD, Bcr-Abl T315I, imatinib-resistant. How it is done:
as §1, §2

The next assay deals with HEK-293T cells. Kind of assay: Cytotoxicity, resazurin assay, non-neoplastic HEK-293T. It counts as cell-based. The conditions noted are these: Homo sapiens, 72 h, GI50 ± SD. How it is done:
The human cell line KCL22 was sourced from the German Collection of Microorganisms and Cell Cultures, while K562 and HEK-293T cells were obtained from the European Collection of Authenticated Cell Cultures. The development of the KCL22 subclone B8 (T315I, 100%) has been previously detailed. All cell lines were maintained in a humidified incubator at 37 °C and 5% CO2, following the manufacturer’s instructions, in the appropriate medium supplemented with 10% foetal bovine serum, penicillin (100 IU/mL), streptomycin (100 µg/mL), and glutamine (4 mM).
Cytotoxicity was assessed utilizing resazurin, an indicator dyes that measures oxidation-reduction reactions in the mitochondria of living cells. Cells were seeded into 96-well plates and treated with the compounds for 72 h (six different doses of each compound, in triplicate). After treatment, a solution of resazurin (Merck, Prague, Czech Republic) was added for 4 h, and the fluorescence of resorufin corresponding to viable cell quantity was measured at 544 nm/590 nm (excitation/emission) using a Fluoroskan Ascent microplate reader (LabSystems, Helsinki, Finland).

In assay [1] the test system is KCL22 cells with Bcr-Abl^T315I. As to conditions: cited from earlier work.
In the next assay the test system is Bcr-Abl. The conditions noted are these: 58-purine 3D-QSAR database, Table S3; cited from earlier work.
[2] abbreviates: experimental pIC50 = −logIC50 on Abl, read-out: pIC50 Exp (converted).
Where [3] appears, read: in vitro inhibition of Abl1 kinase, 1 µM ATP, at least three independent experiments, read-out: IC50 Abl.

T1 sequence (P00519 whole entry): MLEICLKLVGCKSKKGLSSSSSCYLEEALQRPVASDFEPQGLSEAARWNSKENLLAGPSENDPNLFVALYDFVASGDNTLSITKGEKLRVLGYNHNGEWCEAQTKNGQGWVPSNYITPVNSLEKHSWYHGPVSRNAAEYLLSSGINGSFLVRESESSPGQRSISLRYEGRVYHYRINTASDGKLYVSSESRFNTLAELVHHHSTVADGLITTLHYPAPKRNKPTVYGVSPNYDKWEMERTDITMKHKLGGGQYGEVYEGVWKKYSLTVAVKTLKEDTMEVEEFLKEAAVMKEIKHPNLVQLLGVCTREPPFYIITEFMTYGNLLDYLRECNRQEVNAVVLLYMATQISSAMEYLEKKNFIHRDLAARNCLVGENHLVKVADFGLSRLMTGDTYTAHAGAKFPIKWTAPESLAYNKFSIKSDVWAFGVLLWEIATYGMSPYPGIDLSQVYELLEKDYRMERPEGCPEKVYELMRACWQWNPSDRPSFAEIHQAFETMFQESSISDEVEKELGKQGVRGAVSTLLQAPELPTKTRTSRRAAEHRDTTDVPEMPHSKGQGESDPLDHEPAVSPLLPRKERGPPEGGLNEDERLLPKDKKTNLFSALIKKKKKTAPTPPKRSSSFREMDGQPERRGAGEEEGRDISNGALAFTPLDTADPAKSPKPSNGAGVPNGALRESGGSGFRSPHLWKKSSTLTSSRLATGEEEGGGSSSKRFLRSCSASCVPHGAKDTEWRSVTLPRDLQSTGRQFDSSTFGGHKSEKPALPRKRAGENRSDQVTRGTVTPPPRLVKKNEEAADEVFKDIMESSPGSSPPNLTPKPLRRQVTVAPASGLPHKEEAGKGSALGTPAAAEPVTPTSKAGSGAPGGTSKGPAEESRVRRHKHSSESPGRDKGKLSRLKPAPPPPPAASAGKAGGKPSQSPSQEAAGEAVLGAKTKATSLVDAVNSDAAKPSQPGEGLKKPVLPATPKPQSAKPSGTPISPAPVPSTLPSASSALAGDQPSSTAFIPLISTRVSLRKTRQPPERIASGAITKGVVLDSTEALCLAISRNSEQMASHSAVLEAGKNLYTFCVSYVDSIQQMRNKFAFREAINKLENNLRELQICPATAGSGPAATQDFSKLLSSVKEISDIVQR

On to `N#Cc1cccc(Nc2nc(Nc3ccc(N4CCN(CCO)CC4)cc3)nc3c2ncn3CC2CC2)c1` [Compound 7b, 3-((9-(Cyclopropylmethyl)-2-((4-(4-(2-hydroxyethyl)piperazin-1-yl)phenyl)amino)-9H-purin-6-yl)amino)benzonitrile], for which the IC50 is 0.46 µM on recombinant Abl1 kinase (setting [2]) and 0.46 ± 0.15 µM at recombinant Abl1 kinase (setting [3]). In addition, the “SI (K562)” value with K562 cells was found to be 3.6. The GI50 (usually the concentration at which growth is held to half of that of the control) with K562 cells was determined as 4.04 ± 1.87 µM; with KCL22 cells it was 13.1 ± 2.21 µM; in the assay with KCL22-B8 cells (Homo sapiens), 17.9 ± 2.71 µM; in the assay with HEK-293T cells, 14.8 ± 0.91 µM. Also, the “SI (KCL22)” value in the assay on KCL22 cells was 1.1. Further, in the assay with KCL22-B8 cells, the “SI (KCL22-B8)” value is 0.8.
Take `OCCN1CCN(c2ccc(Nc3nc(Nc4cccc(Br)c4)c4ncn(CC5CC5)c4n3)cc2)CC1` [Compound 7d, 2-(4-(4-((6-((3-Bromophenyl)amino)-9-(cyclopropylmethyl)-9H-purin-2-yl)amino)phenyl)piperazin-1-yl)ethan-1-ol]: the IC50 is 0.21 µM at recombinant Abl1 kinase (setting [2]) and 0.21 ± 0.01 µM on recombinant Abl1 kinase (setting [3]). Besides, the “SI (K562)” value in the assay with K562 cells worked out at 5.5. The GI50 in the assay with K562 cells was 1.44 ± 0.91 µM; in the assay on KCL22 cells it was 2.96 ± 0.97 µM; in the assay with KCL22-B8 cells (Homo sapiens), 20.1 ± 2.35 µM; in the assay with HEK-293T cells, 7.87 ± 1.53 µM. Also, in the assay with KCL22 cells, the “SI (KCL22)” value was determined as 2.7. In the assay with KCL22-B8 cells, the “SI (KCL22-B8)” value is reported as 0.4.
Regarding `COC(=O)c1ccc(Nc2nc(Nc3ccc(N4CCN(CCO)CC4)cc3)nc3c2ncn3CC2CC2)cc1Cl` [Compound 7e, Methyl 2-chloro-4-((9-(cyclopropylmethyl)-2-((4-(4-(2-hydroxyethyl)piperazin-1-yl)phenyl)amino)-9H-purin-6-yl)amino)benzoate], the IC50 on recombinant Abl1 kinase (setting [2]) was 0.42 µM; at recombinant Abl1 kinase (setting [3]), 0.42 ± 0.08 µM. Also, in the assay on K562 cells, the “SI (K562)” value turned out to be 2.7. Further, the GI50 is 2.19 ± 1.42 µM with K562 cells; 3.88 ± 1.46 µM in the assay with KCL22 cells; 15.4 ± 0.98 µM in the assay with KCL22-B8 cells; 13.8 µM in the assay with KCL22-B8 cells (Homo sapiens); 5.98 ± 2.78 µM in the assay on HEK-293T cells. Moreover, the “SI (KCL22)” value in the assay with KCL22 cells was found to be 1.7. In addition, the “SI (KCL22-B8)” value in the assay with KCL22-B8 cells was found to be 0.4.
Turning to `OCCN1CCN(c2ccc(Nc3nc(Nc4ccc(Cl)c(C(F)(F)F)c4)c4ncn(CC5CC5)c4n3)cc2)CC1` [Compound 7f, 2-(4-(4-((6-((4-Chloro-3-(trifluoromethyl)phenyl)amino)-9-(cyclopropylmethyl)-9H-purin-2-yl)amino)phenyl)piperazin-1-yl)ethan-1-ol], the figures for the IC50 on recombinant Abl1 kinase (setting [2]) and on recombinant Abl1 kinase (setting [3]) were 1.26 µM and 1.26 ± 0.65 µM, respectively. Further, the “SI (K562)” value with K562 cells turned out to be 1.1. Also, the GI50 in the assay on K562 cells turned out to be 3.56 ± 0.52 µM; with KCL22 cells, 12.4 ± 4.28 µM; in the assay with KCL22-B8 cells it was 13.8 ± 3.05 µM; in the assay with KCL22-B8 cells (Homo sapiens), 15.4 µM; with HEK-293T cells it was 3.96 ± 0.57 µM. In the assay on KCL22 cells, the “SI (KCL22)” value is given as 0.3. The “SI (KCL22-B8)” value with KCL22-B8 cells came out at 0.3.
For `N#Cc1cccc(Nc2nc(Nc3ccc(N4CCN(CCO)CC4)nc3)nc3c2ncn3CC2CC2)c1` [Compound 7c, 3-((9-(Cyclopropylmethyl)-2-((6-(4-(2-hydroxyethyl)piperazin-1-yl)pyridin-3-yl)amino)-9H-purin-6-yl)amino)benzonitrile], the IC50 was 0.19 µM on recombinant Abl1 kinase (setting [2]) and 0.19 ± 0.05 µM on recombinant Abl1 kinase (setting [3]). The GI50 was 0.3 ± 0.11 µM in the assay with K562 cells, 1.54 ± 1.02 µM in the assay on KCL22 cells, above 25 µM in the assay on KCL22-B8 cells (Homo sapiens) and above 25 µM with HEK-293T cells. In addition, the “fold more potent than 7b” value in the assay on K562 cells (K562 cells, GI50 ratio) is recorded as 13 fold; in the assay with KCL22 cells (KCL22 cells, GI50 ratio), “approximately 8.5 fold”. In addition, the “SI (KCL22)” value in the assay on KCL22 cells was 16. Further, in the assay on KCL22-B8 cells, the “SI (KCL22-B8)” value is reported as 0.8.
With `COc1cc(Nc2nc(Nc3ccc(N4CCN(CCO)CC4)cc3)nc3c2ncn3CC2CC2)ccc1Br` [Compound 7g, 2-(4-(4-((6-((4-Bromo-3-methoxyphenyl)amino)-9-(cyclopropylmethyl)-9H-purin-2-yl)amino)phenyl)piperazin-1-yl)ethan-1-ol], the IC50 at recombinant Abl1 kinase (setting [2]) is 0.791 µM; at recombinant Abl1 kinase (setting [3]) it was 0.79 ± 0.14 µM. Moreover, the “SI (K562)” value with K562 cells is reported as 1.8. In addition, the GI50 with K562 cells came to 2.34 ± 1.04 µM; with KCL22 cells it was 5.51 ± 1.08 µM; with KCL22-B8 cells it was 16.6 ± 0.92 µM; in the assay with KCL22-B8 cells (Homo sapiens), 15.4 µM; in the assay on HEK-293T cells, 4.32 ± 1.42 µM. For the same compound, the “SI (KCL22)” value in the assay on KCL22 cells was 0.8. In addition, the “SI (KCL22-B8)” value in the assay with KCL22-B8 cells is 0.3.
Take `Cc1cn(-c2cc(NC(=O)c3ccc(C)c(Nc4nccc(-c5cccnc5)n4)c3)cc(C(F)(F)F)c2)cn1` [nilotinib]: the GI50 in assay [1] was above 20 µM.
As for `OCCOCCN1CCN(c2ccc(Nc3nc(Nc4cccc(F)c4)c4ncn(CC5CC5)c4n3)cc2)CC1` [Compound 7a, 2-(2-(4-(4-((9-(Cyclopropylmethyl)-6-((3-fluorophenyl)amino)-9H-purin-2-yl)amino)phenyl)piperazin-1-yl)ethoxy)ethan-1-ol], the IC50 is 0.13 µM on recombinant Abl1 kinase (setting [2]) and 0.13 ± 0.03 µM on recombinant Abl1 kinase (setting [3]). Also, in the assay on K562 cells, the “SI (K562)” value came out at 5.0. The GI50 in the assay with K562 cells was found to be 1.37 ± 0.61 µM; in the assay with KCL22 cells it was 2.38 ± 1.12 µM; with KCL22-B8 cells (Homo sapiens), 17.4 ± 2.02 µM; with HEK-293T cells, 6.85 ± 0.66 µM. For the same compound, the “SI (KCL22)” value in the assay on KCL22 cells stood at 2.9. Moreover, the “SI (KCL22-B8)” value in the assay with KCL22-B8 cells amounted to 0.4.
Turning to `Cc1ccc(NC(=O)c2ccc(CN3CCN(C)CC3)cc2)cc1Nc1nccc(-c2cccnc2)n1` [imatinib, reference compound], the results for the GI50 with K562 cells, in the assay with KCL22 cells and with HEK-293T cells were 0.23 ± 0.01 µM, 9.26 ± 1 µM and above 10 µM, respectively.
In the case of `COc1cc(Cl)ccc1Nc1nc(Nc2ccc(N3CCN(C)CC3)c(F)c2)nc2c1ncn2CC1CC1` [Compound 13], in the assay on Bcr-Abl, the “pIC50 Exp” value is 5.074.
As to `CN1CCN(c2ccc(Nc3nc(Nc4ccc(OC(F)(F)F)cc4)c4ncn(CC5CC5)c4n3)cc2)CC1` [Compound 21], in the assay on Bcr-Abl, the “pIC50 Exp” value is 6.409.
Turning to `COC(=O)c1ccc(Nc2nc(Nc3ccc(N4CCN(C)CC4)cc3)nc3c2ncn3CC2CC2)cc1` [Compound 24], in the assay on Bcr-Abl, the “pIC50 Exp” value was 7.398.
On to `CN1CCN(C(=O)c2ccc(Nc3nc(Nc4ccccc4)c4ncn(CC5CC5)c4n3)cc2)CC1` [Compound 29], for which, in the assay on Bcr-Abl, the “pIC50 Exp” value is 5.917.
As to `CN1CCN(C(=O)c2ccc(Nc3nc(Nc4ccc(F)c(F)c4)c4ncn(CC5CC5)c4n3)cc2)CC1` [Compound 31], the “pIC50 Exp” value with Bcr-Abl is given as 6.027.
